In US12612407B2, “Imidazo[2,1-f][1,2,4]triazin-4-amine derivatives as TLR7 agonist” (BEIGENE, LTD., priority 2020, dated 2026):

Key:
Assay type in all cases: cell-based
human TLR7 [1] = biological target: T1, human TLR7 (Homo sapiens, UniProt Q9NYK1); experiment: HEK293-Blue hTLR7 Reporter Assay (QUANTI-BLUE, SEAP readout); conditions: HEK-Blue-hTLR7 cells, 24 hrs treatment, Table 1, B1-B232
T1 construct: host or cells: HEK293 (HEK-Blue hTLR7)
T1 sequence (Q9NYK1 27-1049): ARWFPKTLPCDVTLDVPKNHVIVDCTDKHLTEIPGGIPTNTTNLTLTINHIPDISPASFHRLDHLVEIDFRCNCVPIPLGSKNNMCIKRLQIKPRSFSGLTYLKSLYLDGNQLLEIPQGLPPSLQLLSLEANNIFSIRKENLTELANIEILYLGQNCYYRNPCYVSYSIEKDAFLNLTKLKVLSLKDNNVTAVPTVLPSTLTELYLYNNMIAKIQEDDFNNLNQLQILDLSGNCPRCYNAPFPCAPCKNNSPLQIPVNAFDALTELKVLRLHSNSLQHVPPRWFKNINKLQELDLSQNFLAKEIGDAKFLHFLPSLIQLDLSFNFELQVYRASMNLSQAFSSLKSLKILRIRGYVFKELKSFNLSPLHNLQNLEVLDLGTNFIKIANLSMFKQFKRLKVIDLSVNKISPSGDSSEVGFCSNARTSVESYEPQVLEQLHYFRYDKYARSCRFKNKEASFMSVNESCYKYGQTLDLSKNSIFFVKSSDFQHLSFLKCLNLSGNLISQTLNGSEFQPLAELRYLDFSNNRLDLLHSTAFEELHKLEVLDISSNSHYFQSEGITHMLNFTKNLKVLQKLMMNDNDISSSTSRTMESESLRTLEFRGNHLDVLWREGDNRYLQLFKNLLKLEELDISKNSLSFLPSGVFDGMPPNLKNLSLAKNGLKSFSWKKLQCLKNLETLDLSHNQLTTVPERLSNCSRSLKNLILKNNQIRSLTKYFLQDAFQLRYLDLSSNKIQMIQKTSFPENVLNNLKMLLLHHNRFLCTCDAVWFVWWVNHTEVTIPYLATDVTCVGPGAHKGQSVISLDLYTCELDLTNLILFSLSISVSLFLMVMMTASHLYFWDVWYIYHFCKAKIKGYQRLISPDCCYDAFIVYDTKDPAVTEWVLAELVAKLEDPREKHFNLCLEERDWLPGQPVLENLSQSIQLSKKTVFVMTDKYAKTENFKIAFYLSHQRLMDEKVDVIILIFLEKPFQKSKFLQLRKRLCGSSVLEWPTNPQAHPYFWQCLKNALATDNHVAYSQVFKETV
How it was run: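 Compound titrations were applied for 24 h at 37° C to reporter HEK293 cells (4×10^4 per well) in which human TLR7 activation drives secreted alkaline phosphatase. Supernatants reacted with Quanti-blue 10-30 min, absorbance read at 620-655 nm, and EC50 derived by sigmoidal curve fitting.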

human TLR 8 protein = biological target: T2, human TLR 8 protein (Homo sapiens, UniProt Q9NR97); experiment: TLR8 Stimulation determined using HEK-Blue Detection; conditions: HEK-Blue hTLR8 cells, 16 hr, percentages of maximum activation with Resiquimod or Motolimod, Table 3
T2 construct: expressed in transfected cells; host or cells: HEK293 (HEK-Blue hTLR8)
T2 sequence (Q9NR97 27-1041): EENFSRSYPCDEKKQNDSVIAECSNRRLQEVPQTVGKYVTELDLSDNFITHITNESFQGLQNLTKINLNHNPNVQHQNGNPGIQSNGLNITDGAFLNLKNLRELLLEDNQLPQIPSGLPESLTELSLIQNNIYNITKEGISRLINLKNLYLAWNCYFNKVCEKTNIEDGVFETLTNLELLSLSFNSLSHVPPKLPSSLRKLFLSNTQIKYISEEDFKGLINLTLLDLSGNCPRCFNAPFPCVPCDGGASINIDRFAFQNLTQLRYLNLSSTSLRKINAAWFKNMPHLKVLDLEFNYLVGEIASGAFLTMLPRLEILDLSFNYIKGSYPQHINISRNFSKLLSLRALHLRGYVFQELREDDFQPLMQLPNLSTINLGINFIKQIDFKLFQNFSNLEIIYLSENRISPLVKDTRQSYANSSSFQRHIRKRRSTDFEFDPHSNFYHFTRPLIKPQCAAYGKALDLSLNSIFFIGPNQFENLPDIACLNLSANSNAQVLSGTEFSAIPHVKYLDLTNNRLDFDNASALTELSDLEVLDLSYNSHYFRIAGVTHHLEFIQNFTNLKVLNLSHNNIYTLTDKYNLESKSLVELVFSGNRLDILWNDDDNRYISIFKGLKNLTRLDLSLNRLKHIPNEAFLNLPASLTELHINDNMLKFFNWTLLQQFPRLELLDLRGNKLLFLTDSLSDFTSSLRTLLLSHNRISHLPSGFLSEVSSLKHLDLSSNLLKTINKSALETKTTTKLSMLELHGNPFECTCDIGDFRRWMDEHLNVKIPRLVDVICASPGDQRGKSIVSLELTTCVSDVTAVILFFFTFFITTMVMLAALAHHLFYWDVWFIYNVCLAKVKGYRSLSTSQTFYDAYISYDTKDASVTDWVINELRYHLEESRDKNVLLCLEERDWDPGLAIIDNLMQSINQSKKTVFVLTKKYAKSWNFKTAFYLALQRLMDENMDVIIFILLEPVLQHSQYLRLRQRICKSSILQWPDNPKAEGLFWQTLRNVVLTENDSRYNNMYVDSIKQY
Source text: TLR8 Stimulation determined using HEK-Blue Detection
(§1) This assay was designed for studying the stimulation of human TLR 8 protein in HEK-Blue hTLR8 tool cell line by monitoring the activation of NF-κB. HEK-Blue hTLR8 cells were obtained by co-transfection of the hTLR8 gene and an optimized secreted embryonic alkaline phosphatase (SEAP) reporter gene into HEK293 cells. The SEAP reporter gene was placed under the control of the IFN-β minimal promoter fused to five NF-κB and AP-1-binding sites. Stimulation with a TLR 8 ligand activates NF-κB and AP-1 which induce the expression of SEAP. Levels of SEAP can be easily determined with HEK-Blue Detection, a cell culture medium that allows for real-time detection of SEAP. HEK-Blue Detection contains all the nutrients necessary for cell growth and a specific SEAP color substrate. The hydrolysis of the substrate by SEAP produces a purple/blue color that can be measured with a spectrophotometer.
(§2) When growing to 50-80% confluency, HEK-Blue hTLR7/8 cells were plated into 96-well plate (costar 3599) at a density of 40000 cells/well. Then compounds were added with serial dilutions over 10 points with a 1 nM-10 uM final concentration range in 0.1% DMSO/HEK-Blue Detection. The plates were then incubated for 16 hr at 37° C. in 5% CO2. The optical density at 620-655 nm was read on BMG PHERAstar FSX instrument. The EC50 for each compound was determined by calculating the percentages of the maximum activation identified with Resiquimod or Motolimod.

human TLR7 [2] = biological target: T1, human TLR7; experiment: TLR7 Stimulation Determined Using HEK-Blue Detection; conditions: HEK-Blue hTLR7 cells, 16 hr, percentages of maximum activation with Resiquimod, Table 1, B233-B247
Source text: TLR7 Stimulation Determined Using HEK-Blue Detection
as §1, with “TLR7” for “TLR 8”, “hTLR7” for “hTLR8”
as §2, with “HEK-Blue hTLR7” for “HEK-Blue hTLR7/8”, “a 0.04” for “a 1”, “nM-10 μM” for “nM-10 uM”, “5% CO2 and vortex for 30 s before measurement.” for “5% CO2.”, “with Resiquimod.” for “with Resiquimod or Motolimod.”

Compound | EC50 (human TLR7 [1]) | EC50 (human TLR 8 protein) | EC50 (human TLR7 [2])
CCC[C@H](C)Nc1nc(N)c2ncc(Cc3cnc(N4CCC(CNC)CC4)c(C)c3)n2n1 (single isomer, unassigned) [Compound B213] | 2.6 nM | > 10000 nM | –
CCCCOc1nc(N)c2ncc(Cc3ccc(C4CCNCC4)nc3F)n2n1 [Compound B21, 2-butoxy-7-((2-fluoro-6-(piperidin-4-yl)pyridin-3-yl)methyl)imidazo[2,1-f][1,2,4]triazin-4-amine] | 115 nM | 250 nM | –
CCCC(CCC)Nc1nc(N)c2ncc(Cc3cnc(N4CCC(CN(C)C)CC4)c(C)c3)n2n1 [Compound B190, 7-((6-(4-((dimethylamino)methyl)piperidin-1-yl)-5-methylpyridin-3-yl)methyl)-N2-(heptan-4-yl)imidazo[2,1-f][1,2,4]triazine-2,4-diamine] | 4.4 nM | > 10000 nM | –
CCCC(CCC)Nc1nc(N)c2ncc(Cc3cnc(N4CCN(C(=O)CN(C)C)CC4)c(C)c3)n2n1 [Compound B195, 1-(4-(5-((4-amino-2-(heptan-4-ylamino)imidazo[2,1-f] [1,2,4]triazin-7-yl)methyl)-3-methylpyridin-2-yl)piperazin-1-yl)-2-(dimethylamino)ethan-1-one] | 2.8 nM | > 10000 nM | –
CCC[C@H](C)Nc1nc(N)c2ncc(Cc3cnc(N4CCN(C(=O)CN(C)C)CC4)c(C)c3)n2n1 [Compound B219, (S)-1-(4-(5-((4-amino-2-(pentan-2-ylamino)imidazo[2,1-f][1,2,4]triazin-7-yl)methyl)-3-methylpyridin-2-yl)piperazin-1-yl)-2-(dimethylamino)ethan-1-one] | 2.4 nM | > 10000 nM | –
CCC[C@H](C)Nc1nc(N)c2ncc(Cc3cnc(N4CCN[C@@H](CC#N)C4)c(C)c3)n2n1 [Compound B233, 2-((S)-4-(5-((4-amino-2-(((S)-pentan-2-yl)amino)imidazo[2,1-f][1,2,4]triazin-7-yl)methyl)-3-methylpyridin-2-yl)piperazin-2-yl)acetonitrile] | – | > 10000 nM | 18.4 nM
CCCC(C)Oc1nc(N)c2ncc(Cc3cnc(N4CCC(CNCCOC)CC4)c(C)c3)n2n1 (stereo not shown) [Compound B237, 7-((6-(4-(((2-methoxyethyl)amino)methyl)piperidin-1-yl)-5-methylpyridin-3-yl)methyl)-2-(pentan-2-yloxy)imidazo[2,1-f][1,2,4]triazin-4-amine] | – | – | 8.5 nM

Results, then the compound that gave them:

EC50 (human TLR7 [1]) | EC50 (human TLR 8 protein) | EC50 (human TLR7 [2]) | Compound
2.2 nM | > 10000 nM | – | CCC[C@H](C)Nc1nc(N)c2ncc(Cc3cnc(N4CCC(CN(C)C)CC4)c(C)c3)n2n1 (single isomer, unassigned) [Compound B147]
3.7 nM | 197 nM | – | CCC[C@H](C)Oc1nc(N)c2ncc(Cc3cnc(N4CCNCC4)c(C)c3)n2n1 [Compound B118, (S)-7-((5-methyl-6-(piperazin-1-yl)pyridin-3-yl)methyl)-2-(pentan-2-yloxy)imidazo[2,1-f][1,2,4]triazin-4-amine]
2.6 nM | 262 nM | – | CCC[C@H](C)Oc1nc(N)c2ncc(Cc3cnc(N4CCC(N(C)C)CC4)c(C)c3)n2n1 [Compound B122, (S)-7-((6-(4-(dimethylamino)piperidin-1-yl)-5-methylpyridin-3-yl)methyl)-2-(pentan-2-yloxy)imidazo[2,1-f][1,2,4]triazin-4-amine]
1.9 nM | 310 nM | – | CCC[C@H](C)Oc1nc(N)c2ncc(Cc3cnc(N4CCC(CN(C)C)CC4)c(C)c3)n2n1 [Compound B123, (S)-7-((6-(4-((dimethylamino)methyl)piperidin-1-yl)-5-methylpyridin-3-yl)methyl)-2-(pentan-2-yloxy)imidazo[2,1-f][1,2,4]triazin-4-amine]
8.7 nM | 530 nM | – | CCCC(CC)Oc1nc(N)c2ncc(Cc3cnc(N4CCNCC4)c(C)c3)n2n1 (stereo not shown) [Compound B140, 2-(hexan-3-yloxy)-7-((5-methyl-6-(piperazin-1-yl)pyridin-3-yl)methyl)imidazo[2,1-f][1,2,4]triazin-4-amine]
7 nM | 150 nM | – | CCCC(CCO)Oc1nc(N)c2ncc(Cc3cnc(N4CCNCC4)c(C)c3)n2n1 (stereo not shown) [Compound B165, 3-((4-amino-7-((5-methyl-6-(piperazin-1-yl)pyridin-3-yl)methyl)imidazo[2,1-f][1,2,4]triazin-2-yl)oxy)hexan-1-ol]
